Data: US7692011B2, “8-hydroxy and 8-mercapto quinazolinones” (Prana Biotechnology Limited, priority 2002, dated 2010)
Converted amounts (≈) assume the structure as drawn. Where a name gives a salt, the structure may show the parent alone. Read-outs that look alike come from different tables or passages of the source.

Assays:
[1] = tested on: Neuronal cortical cells treated with Aβ1-42; assay: Assay 3(c) Aβ neurotoxicity and Aβ neuroprotection (MTS); format: cell-based, mouse; details: 20 uM Aβ1-42, 4 days
Method: Primary Cortical Neuronal Cultures
Cortical cultures were prepared as previously described (White et al., 1998). Embryonic day 14 BL6Jx129sv mouse cortices were removed, dissected free of meninges and dissociated in 0.025% (wt/vol) trypsin. Dissociated cells were plated in 48 well culture plates at a density of 2×10^6 cells/mL in MEM with 25% (vol/vol) FCS and 5% (vol/vol) HS and incubated at 37° C., 2 hrs. Media was then replaced with Neurobasal media (Invitrogen Life Technologies) and B27 supplements (Invitrogen Life Technologies). Cultures were maintained at 37° C. in 5% CO2. Prior to experimentation, the culture medium was replaced with Neurobasal media and B27 minus antioxidants (Invitrogen Life Technologies).
(c) Assay for Aβ Neurotoxicity and Aβ Neuroprotection
Neuronal cortical cells were cultured for five days as per Assay 2. On day six the neurobasal (NB) media (Invitrogen Life Technologies) and B27 supplement (Invitrogen Life Technologies) were replaced with NB media and B27 supplement (no antioxidants). On day six, test compounds were individually added to the neuronal cell cultures:
(§1) The test compounds were dissolved in 100% DMSO to a concentration of 2.5 mM (10 mM if excess compound was weighed out per vial—then diluted to 2.5 mM). 2.5 mM stock solution was serially diluted 1 in 10 to give working solutions of 250 uM, 25 uM, 2.5 uM.
Aβ was initially dissolved in 20 mM NaOH to a concentration of 1 mM and sonicated for 5 minutes. The peptide was then diluted in H2O and 10×PBS to a final concentration of 200 uM Aβ in 1×PBS. The peptide was again sonicated for 5 minutes and then spun at 14000 rpm for 5 min and transferred to a fresh tube.
as §1, with “in 10 [in NB media and B27 (no antioxidants)] to give” for “in 10 to give”, “2.5 uM. Test compounds were not added directly to cells, instead they were added to a 48 well ‘Drug Plate’ as comprised below:” for “2.5 uM.”
Preparation of “Drug Plate”:
• Well 1: 515 ul NB+B27(no antioxidant)*+24 ul 25 uM test compound+60 ul Aβ diluent** • Well 2: 515 ul NB+B27(no antioxidant)+24 ul 250 uM test compound+60 ul Aβ diluent • Well 3: 515 ul NB+B27(no antioxidant)+24 ul test compound diluent***+60 ul Aβ1-42 • Well 4: 515 ul NB+B27(no antioxidant)+24 ul 2.5 uM test compound+60 ul Aβ1-42 • Well 5: 515 ul NB+B27(no antioxidant)+24 ul 25 uM test compound+60 ul Aβ1-42 • Well 6: 515 ul NB+B27(no antioxidant)+24 ul 250 uM test compound+60 ul […] • Well 7: 515 ul NB+B27(no antioxidant)+24 ul test compound diluent+60 ul Aβ1-42 diluent • Well 8: 600 ul NB+B27(no antioxidant) • N.B. 60 ul Aβ1-42 equals 20 ul Aβ1-42 per well equals 20 uM Aβ1-42
The Drug Plate was incubated at 37° C. for 15 mins. 200 ul of each well was added in triplicate to the corresponding cell plate. The cell plate was incubated at 37 C, for 4 days. • * NB media+B27 (no antioxidants), • ** Aβ diluent 2 mM NaOH, 1×PBS • *** PBT diluent 10% DMSO in NB+B27(no antioxidant) Completion of the Assay:
On the 4th day after treating the cells the assay is completed by adding MTS to the cells.

[2] = tested on: moderately severe AD patients; assay: Phase II clinical trial in Alzheimer's disease: cognition (ADAS-cog); format: in vivo, human; details: more-severely affected groups
Text: The performance of the less-severely affected group (ADAS-cog<25) deteriorated negligibly over this interval, so cognitive changes could not be discriminated in this stratum.
Study population: The study took place at the AD clinical trials unit, Mental Health Research Institute of Victoria and at the Royal Melbourne Hospital. Criteria for inclusion in the study were: informed consent; a diagnosis of probable AD by NINCDS-ADRDA criteria (McKhann et al., 1984); AD Assessment Scale-cognitive (ADAS-cog) (Rosen et al., 1984) score of 18-45; Mini Mental State Examination (MMSE) (Folstein et al., 1975) score of 10-24; on donepezil 5 mg or 10 mg for at least 6 months; relative or carer willing and able to support the trial; able to complete trial examinations; primary sensorial functions intact.
(§2) Study design: The study was a double blind, placebo-controlled, parallel group randomized design. […] The duration of the study was 36 weeks.
Outcome measures: The primary clinical efficacy variable was a change from baseline score on the ADAS-cog conducted at baseline and at weeks 4, 12, 24 and 36. […]
Data preparation and statistical analysis: Data monitoring and management were undertaken by independent contractors (Kendle International and Health Research Solutions, Melbourne). […] Differences between groups on categorical measures were analysed using exact statistical methods in order to maximise power. […]

[3] = Phase II clinical trial: plasma metal levels (ICP-MS); format: in vivo, human; details: AD patients, oral
Text: as §2
Blood samples were collected by antecubital venepuncture except on weeks 12, 24 and 36 when they were collected by an indwelling catheter. […] Zn data from these intervals were therefore omitted from analysis.
Outcome measures: The primary clinical efficacy variable was a change from baseline score on the ADAS-cog conducted at baseline and at weeks 4, 12, 24 and 36. This measure was chosen to allow comparability of treatment effects with current therapeutics such as donepezil, where efficacy trials also used ADAS-cog as their primary outcome measure (Rogers et al., 1998). Although numerous neuropsychological tests could be considered as secondary measures, it was necessary to avoid fatiguing the subjects at review. Therefore the only other cognitive test was the Mini-Mental State Exam (MMSE). The CIBIC+ (clinician interview based impression of change incorporating caregiver information), a subjective observational index was also conducted. Plasma Aβ, and plasma zinc and copper were all taken every four weeks.
Metal levels: Metals were measured by inductively coupled plasma mass spectrometry as previously described (Cherny et al., 2001).

[4] = Phase II clinical trial: therapeutic drug monitoring, blood levels by HPLC; format: in vivo; details: human, oral, read-out: Steady state pre-dose blood level
Text: as §2

Aβ 1-42 = target: T1, Aβ 1-42 (Homo sapiens, UniProt P05067); assay: Assay 1 Fluorometric H2O2 assay: inhibition of hydrogen peroxide generation by Aβ in the presence of copper; format: biochemical; details: Aβ 1-42 with Cu-Gly, DCF fluorescence
T1 construct: The reaction solutions contained Aβ 1-42
T1 sequence (P05067 672-713 limits assumed): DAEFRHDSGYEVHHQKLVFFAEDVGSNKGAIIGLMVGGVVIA
Method: Assay 1. Fluorometric H2O2 Assay
A fluorometric assay was used to test the ability of a test compound to inhibit hydrogen peroxide generation by Aβ in the presence of copper based on dichlorofluoroscein diacetate (DCF; Molecular Probes, Eugene Oreg.). The DCF solution (5 mM) in 100% dimethyl sulphoxide (previously purged with argon for 1 hr at 20° C.) was deacetylated in the presence of 0.025M NaOH for 30 min and neutralised at pH 7.4 to a final concentration of 1 mM. Horseradish peroxidase ([…]) stock solution was prepared to 1 μM at pH 7.4. The reactions were carried out in PBS, pH 7.4 in a 96 well plate (total volume=250 μl/well). The reaction solutions contained Aβ 1-42 at concentrations in the range of 50 nM to 1 μM, copper-glycine chelate (Cu-Gly), was prepared by adding CuCl2 to glycine in the ratio of 1:6 and added to the Aβ in the proportion 2Cu-Gly: 1Aβ), reducing agents including dopamine (5 μM) or ascorbic acid, deacetylated DCF 100 μM, and HRP, 0.1 μM. 1-10 μM EDTA or another chelator may also be present as a control for free copper, but was not required for the assay to function. The reaction mixture was incubated at 37 C for 60 min. Catalase (4000 units/ml) and H2O2 (1-2.5 μM) standards in PBS pH 7.4 may be included as positive controls. Fluorescence was recorded using a plate reader with excitation and emission filters at […] respectively. H2O2 concentration may be established by comparing fluorescence with the H2O2 standards. Inhibition of Aβ H2O2 production was assayed by including a given concentration of test compound(s) in the test wells.

[5] = Assay 12 Turbidimetric solubility measurements; format: physicochemical; details: kinetic from dmso stock, nephelometry
Method: Turbidimetric Solubility Measurements
The solubility estimate was measured at both pH 2.0 and pH 6.5. This is within the pH range that can be anticipated along the proximal gastrointestinal tract in humans.
The compounds were dissolved in DMSO to appropriate concentrations and then spiked into either 0.01M HCl (approx. pH=2.0) or pH 6.5 isotonic phosphate buffer, the final DMSO concentration being 1%. Samples were then analysed via Nephelometry to determine a solubility range. [as per D. Bevan and R. S. Lloyd, Anal. Chem. 2000, 72, 1781-1787].

[6] = aqueous buffer, pH 6.5 isotonic phosphate buffer, 1% DMSO, read-out: Assay 12 Solubility at pH 6.5
[7] = simulated gastric fluid, 0.01 M HCl, pH 2.0, 1% DMSO, read-out: Assay 12 Solubility in 0.01 M HCl, pH 2.0

Row | SMILES | Assay 3(c) Neuroprotection (% inhibition of Abeta toxicity) [1] [%] | IC50 (Aβ 1-42) [µM] | other results
1 | Cc1cnc2c(Cl)cc(Cl)c(O)c2n1 [PBT 1064, 6,8-Dichloro-3-methylquinoxalin-5-ol] | 29 |  | 
2 | Oc1c(I)cc(Cl)c2cccnc12 [PBT-1, iodochlorohydroxyquinoline] |  |  | Difference in mean change from baseline ADAS-cog score over placebo ([2]; week 24): 7.37 (95% CI: 1.51-13.24); Difference in mean change from baseline ADAS-cog score over placebo ([2]; week 36): 6.36 (95% CI: −0.50-13.23); Effect on plasma Cu [3]: no effect; Elevation of total plasma Zn [3]: ≈ 30%; concentration at 12 weeks ([4]; 250 mg/day, total daily dosage 250 mg): 4.03 ± 2.1 µg/mL; concentration at 24 weeks ([4]; 500 mg/day, total daily dosage 500 mg): 6.74 ± 3.7 µg/mL; concentration at 36 weeks ([4]; 750 mg/day, total daily dosage 750 mg): 7.6 ± 2.15 µg/mL
3 | COC(=O)c1nc(Cl)c2cccnc2c1O [PBT-1045, 5-chloro-8-hydroxy-[1,6]naphthyridine-7-carboxylic acid methyl ester] | 12 | 0.9 | 
4 | O=c1ccnc2c(O)cccn12 [PBT-1048, 9-hydroxypyrido[1,2-a]pyrimidin-4-one] | 22 | 0.35 | 
5 | O=c1[nH]cnc2c(O)cccc12 [PBT-1049, 8-hydroxy-3H-quinazolin-4-one] | 11 | 1.6 | 
6 | O=c1c2c(Cl)cc(Cl)c(O)c2ncn1-c1ccc(F)cc1 [PBT-1055, 5,7-Dichloro-3-(4-fluorophenyl)-8-hydroxy-3H-quinazolin-4-one] | 29 | 0.75 | solubility [5, 6]: 0.003 to 0.0063 mg/mL (≈ 9.23 to 19.4 µM); solubility [5, 7]: 0.003 to 0.0063 mg/mL (≈ 9.23 to 19.4 µM)
7 | Cc1cnc2c(O)c(Cl)cc(Cl)c2n1 [PBT-1065, 6,8-Dichloro-2-methylquinoxalin-5-ol] | 7 |  | 
8 | CN(C)Cc1cnc2c(Cl)cc(Cl)c(O)c2n1 [PBT-1066, 6,8-Dichloro-3-(dimethylaminomethyl)quinoxalin-5-ol hydrochloride] |  |  | solubility [5, 6]: > 0.1 mg/mL; solubility [5, 7]: > 0.1 mg/mL
9 | O=c1[nH]cnc2c(O)c(Cl)cc(Cl)c12 [PBT-1067, 5,7-Dichloro-8-hydroxy-3H-quinazolin-4-one] |  | 0.95 | solubility [5, 6]: 0.025 to 0.05 mg/mL (≈ 108 to 216 µM); solubility [5, 7]: 0.0125 to 0.025 mg/mL (≈ 54.1 to 108 µM)
10 | O=c1c(-c2ccc(Cl)cc2)cnc2c(O)cccn12 [PBT-1069, 3-(4-chlorophenyl)-9-hydroxypyrido[1,2-a]pyrimidin-4-one] |  | 0.6 | 
11 | CNCc1ccc2cnc(C(=O)NCc3ccc(F)cc3)c(O)c2n1 [PBT-1070] |  | 1.14 | 
